According to PMC2962730 (Journal of neurochemistry, 2010):
Substitutions are numbered along the chain they refer to.

Assays:
hVAChT C388A = target: T1, hVAChT C388A (Homo sapiens, UniProt Q16572, C388A); assay: [3H]vesamicol saturation binding; details: pH 7.4
T1 sequence (Q16572 1-532 C388A): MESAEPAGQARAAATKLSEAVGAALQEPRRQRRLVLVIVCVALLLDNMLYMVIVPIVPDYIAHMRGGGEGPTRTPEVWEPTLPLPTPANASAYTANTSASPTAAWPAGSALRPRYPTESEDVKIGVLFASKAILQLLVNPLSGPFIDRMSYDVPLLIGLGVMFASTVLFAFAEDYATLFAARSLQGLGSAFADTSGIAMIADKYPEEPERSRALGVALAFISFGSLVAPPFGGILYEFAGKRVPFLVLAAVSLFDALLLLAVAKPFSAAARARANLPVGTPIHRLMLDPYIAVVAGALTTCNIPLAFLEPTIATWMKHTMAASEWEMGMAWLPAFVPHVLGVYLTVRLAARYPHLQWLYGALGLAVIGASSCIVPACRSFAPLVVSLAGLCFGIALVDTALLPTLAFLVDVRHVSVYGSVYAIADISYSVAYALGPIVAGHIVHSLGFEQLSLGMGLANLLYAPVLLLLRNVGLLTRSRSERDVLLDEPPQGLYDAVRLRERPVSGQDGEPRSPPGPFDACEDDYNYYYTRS

hVAChT A334F = target: T2, hVAChT A334F (Homo sapiens, UniProt Q16572, A334F); assay: [3H]vesamicol saturation binding; details: pH 7.4
T2 sequence (Q16572 1-532 A334F): T1 sequence (Q16572 1-532 C388A) with A334F, A388C

hVAChT W325H = target: T3, hVAChT W325H (Homo sapiens, UniProt Q16572, W325H); assay: [3H]vesamicol saturation binding; details: pH 7.4
T3 sequence (Q16572 1-532 W325H): T1 sequence (Q16572 1-532 C388A) with W325H, A388C

hVAChT W325F = target: T4, hVAChT W325F (Homo sapiens, UniProt Q16572, W325F); assay: [3H]ACh transport; assay type: biochemical
T4 sequence (Q16572 1-532 W325F): T1 sequence (Q16572 1-532 C388A) with W325F, A388C

hVAChT wild-type = target: T5, hVAChT wild-type (Homo sapiens, UniProt Q16572); assay: ACh equilibrium binding by competition against [3H]vesamicol; details: WT hVAChT; pH 7.4
T5 sequence (Q16572 1-532): T1 sequence (Q16572 1-532 C388A) with A388C

Vmax/Bmax, ACh transport normalized to Bmax (hVAChT W325F; pH 7.4)	Km (hVAChT W325F; read-out: KM, Michaelis-Menten constant for ACh transport, pH 7.4)	FHA, fraction of the ACh sites that have high affinity (hVAChT wild-type)	SMILES	Bmax, maximal specific [3H]vesamicol binding (VAChT expression level) (hVAChT C388A)	Bmax, maximal specific [3H]vesamicol binding (VAChT expression level) (hVAChT A334F)	Bmax, maximal specific [3H]vesamicol binding (VAChT expression level) (hVAChT W325H)
			O[C@@H]1CCCC[C@H]1N1CCC(c2ccccc2)CC1 (racemic) [vesamicol, ( )-trans-2-(4-phenylpiperidino)cyclohexanol]	59 ± 1 pmol/mg	13 ± 1 pmol/mg	22 ± 1 pmol/mg
5.0 ± 0.5 min⁻¹	1000 ± 300 µM	0.82 ± 0.04	CC(=O)OCC[N+](C)(C)C [ACh, acetylcholine]			
